Values quoted from earlier work as cited in patent US7101871B2, “Beta-amino heterocyclic dipeptidyl peptidase inhibitors for the treatment or prevention of diabetes” (Merck & Co., Inc., priority 2002, dated 2006).

Experiments:
hematopoiesis = conditions: mouse, cyclophosphamide-induced neutropenia (WO 99/56753)
cardiac allograft = conditions: rats; doubled from day 7 to day 14
[1] = system: GRF degradation in plasma

In the case of `CC(C)[C@H](N)C(=O)N1CCC[C@H]1B(O)O` [Val-Boro-Pro], the effect on hematopoiesis (hematopoiesis) is given as “stimulated hematopoiesis”.
For `CC(C)N1CCC(c2ccccc2)(c2ccccc2)CC1` [Prodipine, Pro-Pro-diphenyl-phosphonate], the cardiac allograft survival (cardiac allograft) is listed as 14 day.
In the case of `CC[C@H](C)[C@H](N)C(=O)N1CCC[C@H]1C(=O)N[C@H](C(=O)O)[C@@H](C)CC` [diprotin A], the “effect on degradation of GRF to GRF[3-44] in plasma” value [1] is listed as “prevented”.
